Reference: US10570179B2, “Substituted urea depsipeptide analogs as activators of the CLPP endopeptidase” (priority 2016, dated 2020)
≈ marks a conversion by molar mass, not a printed value. Where two headings read alike, the source gives them in different places. Numbered stars: 1 amine (or outer) side, 2 acyl side, 3 side chain; on linkers, the order of the positions; unused ones are H or OH. Bridge positions count the residues as written; N and C are the ends. Square brackets hold non-standard residues; d marks the D form. Peptide text beside a SMILES is read from it. * marks the point of attachment. Phe(3-Me) = Cc1cccc(C[C@H](N)C(=O)O)c1; NH(4-Cl-2-F-phenyl) = Fc1cc(Cl)ccc1N*; Pro(4R-Me) = C[C@H]1CN[C@H](C(=O)O)C1; Hyp = O=C(O)[C@@H]1C[C@@H](O)CN1; NH(3-Cl-phenyl) = Clc1cccc(N*)c1; NH(4-Me-phenyl) = Cc1ccc(N*)cc1; NH(4-F-phenyl) = Fc1ccc(N*)cc1; aThr = C[C@H](O)[C@H](N)C(=O)O; NH(2-F-phenyl) = Fc1ccccc1N*; Pip = O=C(O)[C@@H]1CCCCN1; X7 = Clc1ccc(N*)c(Cl)c1; CO = O=C([*:1])[*:2]

Experiments:
[1] = system: S. aureus ATCC 29213; experiment: Minimal inhibitory concentration, microbroth dilution; type: cell-based; details: Staphylococcus aureus
Procedure: (§1) Minimal inhibitory concentrations (“MICs”) were determined using the microbroth dilution method according to Clinical Laboratory Standards Institute (CLSI; National, C.F. C. L. S., Methods for Dilution Antimicrobial Susceptibility Tests for Bacteria Grow aerobically-Seventh Edition: Approved Standard M7-A7, CLSI, Wayne, Pa., USA, 2008) and were read by visual inspection. Two fold serial dilutions of test compound in 100 μL of the appropriate broth media were first prepared in 96-well round bottom microtiter plates (Nalgene Nunc International, Rochester, N.Y., USA). An equivalent volume (100 μL) of bacterial broth inocula containing approximately 10^5 bacterial cfu/mL was added to each well to give final concentrations of test compound starting at 200 μM. The plates were then incubated aerobically at 37° C. All strains were incubated overnight. After incubations, in all cases the MIC was recorded as the lowest concentration of drug that prevented bacterial growth. The bacterial strains for which MIC was determined as described in Table 4.

[2] = system: S. aureus USA 300; experiment: as above; type: cell-based; details: Staphylococcus aureus
Procedure: as §1

[3] = system: E. faecails; experiment: as above; type: cell-based; details: Enterococcus faecalis
Procedure: as §1

[4] = system: MRSA NRS70; experiment: as above; type: cell-based; details: Staphylococcus aureus
Procedure: as §1

[5] = system: S. aureus ΔClpP; experiment: as above; type: cell-based, Staphylococcus aureus; details: MIC; ClpP inactivated
Procedure: as §1

[6] = molecular target: T1, S. aureus ClpP (Sa-ClpP) (Staphylococcus aureus, UniProt Q2G036); experiment: Casein-BODIPY digestion assay (ClpP activation); type: biochemical
T1 construct: made in house; host or cells: E. coli BL21 (DE3)
Procedure: The compounds were assayed in a casein digestion assay in order to determine their effect on ClpP activation. Briefly, the assay was carried out using S. aureus ClpP (“Sa-ClpP”) overexpressed in E. coli BL21 (DE3) and purified in a two-step process. Purity of the protein was assessed through SDS PAGE analysis. EC50 evaluations were conducted in triplicate in a 20 μl assay format using a method adapted from Maurizi et al. (Methods Enzymol. (1994) 244:314-331). Each well contained 10 μM saClpP, 25 μg/ml BODIPY FL casein (Invitrogen Corporation, San Diego, Calif.), and test compound in concentrations ranging between 0-1000 μM in assay buffer (50 mM Tris pH 8, 200 mM KCl, and 1 mM TCEP). The reaction took place at 37° C. Fluorescence (excitation 485 nm; emission 528 nm) was measured in five minute intervals over a 45 min period using a BioTek HT fluorescence microplate reader (BioTek Instruments, Inc., Winooski, Vt.). Velocity of each reaction was calculated and data was fit to a dose response curve using GraphPad Prism® software (GraphPad Software, Inc., La Jolla, Calif.). EC50 is the effective concentration of compound which causes 50% activation of S. aureus ClpP in the foregoing BODIPY FL casein assay.
Alternatively, the assay was carried out using EnzCheck Protease Assay (Molecular Probes, Catalog # E6638). The assay was performed in black 384 well, flat bottom, low volume plates (Greiner Bio-One, Monroe, N.C., catalog #784076). 10 μL of Tris.HCl buffer, pH 8.0 with 0.01% Triton X-100 was pipetted into each well using a Well-Mate (Thermo Scientific, Waltham, Mass.). 0.4 μL test compounds or controls (2% DMSO v/v) were added to each well using a Biomek FX liquid handling robot (Beckman Coulter, Indianapolis, Ind.). After addition of test compounds and controls, 10 μL of master mix containing 2 μM Sa-ClpP and 2 μM substrate (Bodipy-FL labeled casein) in Tris.HCl buffer, pH 8.0 with 0.01% (v/v) Triton X-100, was pipetted into each well. All assays were performed in triplicate, under linear velocity conditions. Increase in fluorescent signal following activation of Sa-ClpP by test compounds and controls was measured over time period of 30 mins using filters with excitation at 485±15 nm and emission at 520±25 nm on a PHERAstar FS Multilabel reader (BMG, Cary, N.C.). Instrument gains and enzyme linear velocity conditions were determined and validated using ADEP4, a known Sa-ClpP activator. Data analysis was done by measuring rate of casein degradation over time (slopes). Computed degradation rates (slopes) were normalized to positive (ADEP4) or negative (DMSO) controls. Using nonlinear regression curve fitting EC50 values and % activation were determined using the equation “log [agonist] vs. Response-variable slope (four parameters)-symmetrical” in the program Prism 6 (GraphPad Software, La Jolla, Calif. USA, www.graphpad.com).

[7] = ATCC29213, read-out: Minimal Inhibitory Concentrations (μM) S. aureus ATCC 29213, MIC
[8] = USA300, read-out: Minimal Inhibitory Concentrations (μM) S. aureus USA 300, MIC
[9] = read-out: Minimal Inhibitory Concentrations (μM) E. faecails, MIC
[10] = read-out: Minimal Inhibitory Concentrations (μM) MRSA NRS70, MIC
[11] = ATCC29213, MIC, read-out: Minimal Inhibitory Concentrations (μM) S. aureus ATCC 29213
[12] = USA300, MIC, read-out: Minimal Inhibitory Concentrations (μM) S. aureus USA 300
[13] = MIC, read-out: Minimal Inhibitory Concentrations (μM) E. faecails
[14] = MIC, read-out: Minimal Inhibitory Concentrations (μM) MRSA NRS70

T1 sequence (Q2G036 whole entry): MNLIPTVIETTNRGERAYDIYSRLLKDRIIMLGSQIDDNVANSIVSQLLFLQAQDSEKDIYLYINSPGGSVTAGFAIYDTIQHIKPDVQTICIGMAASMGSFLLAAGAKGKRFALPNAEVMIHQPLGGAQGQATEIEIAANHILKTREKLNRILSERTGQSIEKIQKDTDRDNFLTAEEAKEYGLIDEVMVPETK

Cc1ccc(NC(=O)N[C@@H](Cc2cccc(C)c2)C(=O)N[C@@H]2C(=O)N3C[C@H](O)C[C@H]3C(=O)N3CCCC[C@H]3C(=O)N[C@@H](C)C(=O)N3CCC[C@H]3C(=O)O[C@H]2C)cc1 [Compound 51, (S)—N-((6S,8AS,14AS,16R,20S,21S,23AS)-16-HYDROXY-6,21-DIMETHYL-5,8,14,19,23-PENTAOXOOCTADECAHYDRO-1H,5H,14H,19H-PYRIDO[2,1-I]DIPYRROLO[2,1-C:2′,1′-L][1]OXA[4,7,10,13]TETRAAZACYCLOHEXADECIN-20-YL)-3-(M-TOLYL)-2-(3-(P-TOLYL)UREIDO)PROPANAMIDE] ({NH(4-Me-phenyl)-CO}-[Phe(3-Me)][aThr][Hyp][Pip]AP; ester 2-C)
MIC [1, 7]: 5 µM (≈ 3.94 µg/mL)
MIC [2, 8]: 5 µM (≈ 3.94 µg/mL)
MIC [3, 9]: 5 µM (≈ 3.94 µg/mL)
MIC [4, 10]: 2.5 µM (≈ 1.97 µg/mL)
Minimal Inhibitory Concentrations (μM) S. aureus ΔClpP [5]: >20 µM

Cc1cccc(C[C@H](NC(=O)Nc2cccc(Cl)c2)C(=O)N[C@H]2COC(=O)[C@@H]3C[C@@H](C)CN3C(=O)[C@H](C)NC(=O)[C@@H]3CCCCN3C(=O)[C@@H]3CCCN3C2=O)c1 [Compound 72, (S)-2-(3-(3-CHLOROPHENYL)UREIDO)-N-((2R,6S,8AS,14AS,20S,23AS)-2,6-DIMETHYL-5,8,14,19,23-PENTAOXOOCTADECAHYDRO-1H,5H,14H,19H-PYRIDO[2,1-I]DIPYRROLO[2,1-C:2′,1′-L][1]OXA[4,7,10,13]TETRAAZACYCLOHEXADECIN-20-YL)-3-(M-TOLYL)PROPANAMIDE]
MIC [1, 7]: 2.5 µM (≈ 1.98 µg/mL)
MIC [2, 8]: 2.5 µM (≈ 1.98 µg/mL)
MIC [3, 9]: 10 µM (≈ 7.92 µg/mL)
MIC [4, 10]: 2.5 µM (≈ 1.98 µg/mL)
Minimal Inhibitory Concentrations (μM) S. aureus ΔClpP [5]: >20 µM

Cc1cccc(C[C@H](NC(=O)Nc2ccccc2F)C(=O)N[C@@H]2C(=O)N3C[C@H](O)C[C@H]3C(=O)N3CCCC[C@H]3C(=O)N[C@@H](C)C(=O)N3C[C@H](C)C[C@H]3C(=O)O[C@H]2C)c1 [Compound 80, (S)-2-(3-(2-FLUOROPHENYL)UREIDO)-N-((2R,6S,8AS,14AS,16R,20S,21S,23AS)-16-HYDROXY-2,6,21-TRIMETHYL-5,8,14,19,23-PENTAOXOOCTADECAHYDRO-1H,5H,14H,19H-PYRIDO[2,1-I]DIPYRROLO[2,1-C:2′,1′-L][1]OXA[4,7,10,13]TETRAAZACYCLOHEXADECIN-20-YL)-3-(M-TOLYL)PROPANAMIDE] ({NH(2-F-phenyl)-CO}-[Phe(3-Me)][aThr][Hyp][Pip]A[Pro(4R-Me)]; ester 2-C)
EC50 [6]: 590 ± 400 nM

Cc1cccc(C[C@H](NC(=O)Nc2cccc(Cl)c2)C(=O)N[C@@H]2C(=O)N3C[C@H](O)C[C@H]3C(=O)N3CCCC[C@H]3C(=O)N[C@@H](C)C(=O)N3CCC[C@H]3C(=O)O[C@H]2C)c1 [Compound 60, (S)-2-(3-(3-CHLOROPHENYL)UREIDO)-N-((6S,8AS,14AS,16R,20S,21S,23AS)-16-HYDROXY-6,21-DIMETHYL-5,8,14,19,23-PENTAOXOOCTADECAHYDRO-1H,5H,14H,19H-PYRIDO[2,1-I]DIPYRROLO[2,1-C:2′,1′-L][1]OXA[4,7,10,13]TETRAAZACYCLOHEXADECIN-20-YL)-3-(M-TOLYL)PROPANAMIDE] ({NH(3-Cl-phenyl)-CO}-[Phe(3-Me)][aThr][Hyp][Pip]AP; ester 2-C)
MIC [1, 7]: > 20 µM
MIC [2, 8]: 10 µM (≈ 8.08 µg/mL)
MIC [3, 9]: > 20 µM
MIC [4, 10]: 5 µM (≈ 4.04 µg/mL)
EC50 [6]: 1470 ± 1100 nM

Cc1cccc(C[C@H](NC(=O)Nc2ccc(Cl)cc2F)C(=O)N[C@@H]2C(=O)N3C[C@H](O)C[C@H]3C(=O)N3CCCC[C@H]3C(=O)N[C@@H](C)C(=O)N3CCC[C@H]3C(=O)O[C@H]2C)c1 [Compound 50, (S)-2-(3-(4-CHLORO-2-FLUOROPHENYL)UREIDO)-N-((6S,8AS,14AS,16R,20S,21S,23AS)-16-HYDROXY-6,21-DIMETHYL-5,8,14,19,23-PENTAOXOOCTADECAHYDRO-1H,5H,14H,19H-PYRIDO[2,1-I]DIPYRROLO[2,1-C:2′,1′-L][1]OXA[4,7,10,13]TETRAAZACYCLOHEXADECIN-20-YL)-3-(M-TOLYL)PROPANAMIDE] ({NH(4-Cl-2-F-phenyl)-CO}-[Phe(3-Me)][aThr][Hyp][Pip]AP; ester 2-C)
MIC [1, 11]: 0.625 µM (≈ 0.516 µg/mL)
MIC [2, 12]: 1.25 µM (≈ 1.03 µg/mL)
MIC [3, 13]: 2.5 µM (≈ 2.07 µg/mL)
MIC [4, 14]: 0.313 µM (≈ 0.259 µg/mL)
Minimal Inhibitory Concentrations (μM) S. aureus ΔClpP [5]: >20 µM

Cc1cccc(C[C@H](NC(=O)Nc2ccc(Cl)cc2F)C(=O)N[C@H]2COC(=O)[C@@H]3CCCN3C(=O)[C@H](C)NC(=O)[C@@H]3CCCCN3C(=O)[C@@H]3C[C@@H](O)CN3C2=O)c1 [Compound 48, (S)-2-(3-(4-CHLORO-2-FLUOROPHENYL)UREIDO)-N-((6S,8AS,14AS,16R,20S,23AS)-16-HYDROXY-6-METHYL-5,8,14,19,23-PENTAOXOOCTADECAHYDRO-1H,5H,14H,19H-PYRIDO[2,1-I]DIPYRROLO[2,1-C:2′,1′-L][1]OXA[4,7,10,13]TETRAAZACYCLOHEXADECIN-20-YL)-3-(M-TOLYL)PROPANAMIDE]
MIC [1, 11]: 1.25 µM (≈ 1.02 µg/mL)
MIC [2, 12]: 1.25 µM (≈ 1.02 µg/mL)
MIC [3, 13]: 2.5 µM (≈ 2.03 µg/mL)
MIC [4, 14]: 1.25 µM (≈ 1.02 µg/mL)

Cc1cccc(C[C@H](NC(=O)Nc2ccc(F)cc2)C(=O)N[C@@H]2C(=O)N3C[C@H](O)C[C@H]3C(=O)N3CCCC[C@H]3C(=O)N[C@@H](C)C(=O)N3C[C@H](C)C[C@H]3C(=O)O[C@H]2C)c1 [Compound 79, (S)-2-(3-(4-FLUOROPHENYL)UREIDO)-N-((2R,6S,8AS,14AS,16R,20S,21S,23AS)-16-HYDROXY-2,6,21-TRIMETHYL-5,8,14,19,23-PENTAOXOOCTADECAHYDRO-1H,5H,14H,19H-PYRIDO[2,1-I]DIPYRROLO[2,1-C:2′,1′-L][1]OXA[4,7,10,13]TETRAAZACYCLOHEXADECIN-20-YL)-3-(M-TOLYL)PROPANAMIDE] ({NH(4-F-phenyl)-CO}-[Phe(3-Me)][aThr][Hyp][Pip]A[Pro(4R-Me)]; ester 2-C)
EC50 [6]: 900 ± 600 nM

Cc1cccc(C[C@H](NC(=O)Nc2ccc(Cl)cc2Cl)C(=O)N[C@@H]2C(=O)N3C[C@H](O)C[C@H]3C(=O)N3CCCC[C@H]3C(=O)N[C@@H](C)C(=O)N3C[C@H](C)C[C@H]3C(=O)O[C@H]2C)c1 [Compound 78, (S)-2-(3-(2,4-DICHLOROPHENYL)UREIDO)-N-((2R,6S,8AS,14AS,16R,20S,21S,23AS)-16-HYDROXY-2,6,21-TRIMETHYL-5,8,14,19,23-PENTAOXOOCTADECAHYDRO-1H,5H,14H,19H-PYRIDO[2,1-I]DIPYRROLO[2,1-C:2′,1′-L][1]OXA[4,7,10,13]TETRAAZACYCLOHEXADECIN-20-YL)-3-(M-TOLYL)PROPANAMIDE] ({X7-CO}-[Phe(3-Me)][aThr][Hyp][Pip]A[Pro(4R-Me)]; ester 2-C)
EC50 [6]: 330 ± 100 nM
